The text below walks through data of ChEMBL document CHEMBL1201862, “PubChem BioAssay data set” (2004).

The source made the active and inactive calls.

Experiment [1] can be described thus: HeLa cell cytotoxicity, dose response, cytotoxicity control for MgcRacGAP inhibitor project (AID 624300). Type of experiment: functional.
Experiment [2] can be described thus: growth suppression of beta-catenin-knockout colon cells, dose response, cell-based, HCT116, human colon tumor (AID 1045).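 Further: HCT116 colon tumor cells with beta catenin knocked out; cells exposed to compound for 60 hours.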 It is filed as functional.
For experiment [3], the target named is T1, Histone-lysine N-methyltransferase NSD2 (Homo sapiens, UniProt O96028).
T1 sequence (O96028 whole entry): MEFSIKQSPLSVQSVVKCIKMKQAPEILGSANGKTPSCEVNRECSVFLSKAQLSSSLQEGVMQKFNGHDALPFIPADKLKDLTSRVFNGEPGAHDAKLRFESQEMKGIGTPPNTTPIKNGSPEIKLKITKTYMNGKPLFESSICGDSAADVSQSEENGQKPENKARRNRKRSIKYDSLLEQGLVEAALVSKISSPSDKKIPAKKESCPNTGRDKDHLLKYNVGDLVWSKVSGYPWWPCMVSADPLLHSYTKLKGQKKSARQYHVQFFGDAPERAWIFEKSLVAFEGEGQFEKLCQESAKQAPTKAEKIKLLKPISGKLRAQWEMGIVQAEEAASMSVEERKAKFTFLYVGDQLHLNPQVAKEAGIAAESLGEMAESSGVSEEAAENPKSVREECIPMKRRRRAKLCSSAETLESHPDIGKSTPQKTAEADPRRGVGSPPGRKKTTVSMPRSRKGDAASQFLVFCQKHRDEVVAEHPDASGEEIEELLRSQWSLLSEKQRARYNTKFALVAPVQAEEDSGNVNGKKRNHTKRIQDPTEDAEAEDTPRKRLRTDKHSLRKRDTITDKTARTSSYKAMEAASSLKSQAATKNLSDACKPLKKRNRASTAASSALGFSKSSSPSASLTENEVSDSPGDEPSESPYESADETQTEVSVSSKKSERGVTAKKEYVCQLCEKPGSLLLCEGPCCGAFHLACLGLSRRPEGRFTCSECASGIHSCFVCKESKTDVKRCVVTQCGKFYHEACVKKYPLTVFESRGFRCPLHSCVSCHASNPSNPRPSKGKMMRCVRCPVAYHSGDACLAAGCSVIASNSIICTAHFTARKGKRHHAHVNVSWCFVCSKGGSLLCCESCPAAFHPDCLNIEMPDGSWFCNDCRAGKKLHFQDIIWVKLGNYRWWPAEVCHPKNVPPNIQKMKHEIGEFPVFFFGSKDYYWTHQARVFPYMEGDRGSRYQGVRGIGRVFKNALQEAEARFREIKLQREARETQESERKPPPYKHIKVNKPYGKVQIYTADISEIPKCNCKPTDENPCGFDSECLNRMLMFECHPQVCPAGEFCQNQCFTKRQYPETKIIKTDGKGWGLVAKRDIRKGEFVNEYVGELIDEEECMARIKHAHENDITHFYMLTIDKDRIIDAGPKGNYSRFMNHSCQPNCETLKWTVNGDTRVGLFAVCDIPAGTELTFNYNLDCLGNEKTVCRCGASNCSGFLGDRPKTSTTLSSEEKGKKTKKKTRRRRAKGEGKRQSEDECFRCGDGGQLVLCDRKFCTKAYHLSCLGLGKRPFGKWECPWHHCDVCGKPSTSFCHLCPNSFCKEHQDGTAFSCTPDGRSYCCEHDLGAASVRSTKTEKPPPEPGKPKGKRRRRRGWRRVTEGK
Type of experiment: biochemical.

Experiment [4] concerns the target Polyadenylate-binding protein 1 (Homo sapiens, UniProt P11940). The experiment is described as follows: PABP1 MLLE–PAM2 binding inhibitor potency, dose response, biochemical, fluorescence polarization, FITC-PAM2 peptide (AID 602259). Type of experiment: functional. Particulars: read-out: IC50_Mean. (In general: Polarisation of emitted light reports the rotation of a fluorescent probe.)

The nature of experiment [5]: C. albicans growth with fluconazole, confirmation, fluorescence, retest (AID 2467). It is filed as functional, cell-based.
The target in experiment [6] is T2, Estrogen receptor (Homo sapiens, UniProt P03372).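 Further: potency for inhibiting coactivator peptide recruitment to the receptor.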
T2 sequence (P03372 whole entry): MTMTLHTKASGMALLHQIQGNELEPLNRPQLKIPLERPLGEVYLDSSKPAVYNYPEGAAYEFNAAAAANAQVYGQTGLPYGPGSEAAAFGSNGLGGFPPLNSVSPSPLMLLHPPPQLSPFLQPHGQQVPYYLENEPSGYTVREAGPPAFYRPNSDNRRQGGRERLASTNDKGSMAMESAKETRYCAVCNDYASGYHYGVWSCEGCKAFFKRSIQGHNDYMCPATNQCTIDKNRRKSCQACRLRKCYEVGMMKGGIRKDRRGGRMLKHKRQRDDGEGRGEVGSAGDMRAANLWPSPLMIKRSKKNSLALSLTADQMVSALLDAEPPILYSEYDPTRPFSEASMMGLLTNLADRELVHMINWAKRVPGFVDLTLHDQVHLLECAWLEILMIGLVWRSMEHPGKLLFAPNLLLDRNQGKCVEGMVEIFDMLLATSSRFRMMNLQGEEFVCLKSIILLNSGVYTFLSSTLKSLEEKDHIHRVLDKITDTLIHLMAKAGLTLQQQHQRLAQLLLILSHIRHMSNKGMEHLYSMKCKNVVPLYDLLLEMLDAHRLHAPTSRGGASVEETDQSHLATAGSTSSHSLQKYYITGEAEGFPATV

In experiment [7] the target is Troponin, cardiac muscle (Homo sapiens, UniProt P19429+P45379+P63316). Description: inhibitors of cardiac thin filament calcium sensitivity, dose response, biochemical, fluorescence, cardiac regulated thin filaments, triplicate IC50 (AID 504742). It is filed as protein-complex assay.
Experiment [8] addresses T3, Caspase-3 (Homo sapiens, UniProt P42574).
T3 sequence (P42574 whole entry): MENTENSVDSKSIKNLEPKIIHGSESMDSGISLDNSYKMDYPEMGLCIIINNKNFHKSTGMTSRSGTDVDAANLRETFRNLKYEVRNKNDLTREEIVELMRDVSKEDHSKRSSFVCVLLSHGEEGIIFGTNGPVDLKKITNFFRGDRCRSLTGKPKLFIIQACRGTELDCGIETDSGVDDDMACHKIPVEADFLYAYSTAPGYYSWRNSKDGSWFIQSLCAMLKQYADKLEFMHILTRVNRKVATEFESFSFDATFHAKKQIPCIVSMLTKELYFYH
The experiment is described as follows: SAR Analysis of small molecule inhibitors of Sentrin-specific proteases (SENPs) using a Caspase-3 Selectivity assay. [Related pubchem assays (depositor defined):AID2540, AID2599, AID434973, AID489001]. It is filed as functional.

Experiment [9] deals with Serine/threonine-protein phosphatase (Homo sapiens, UniProt Q9BPW0). The experiment is described as follows: PP5 phosphatase inhibitors, dose response, biochemical, fluorescence (AID 2395).
The target in experiment [10] is T3, Caspase-3. The experiment is described as follows: Dose-response confirmation of uHTS inhibitor hits of Sentrin-Specific Protease 8 in a Caspase-3 Fluorescence assay. Type of experiment: functional.
For experiment [11], the target named is Casein kinase I isoform alpha (Homo sapiens, UniProt P48729). Type of experiment: functional.
Experiment [12] deals with Mitogen-activated protein kinase 9 (Homo sapiens, UniProt P45984). Type of experiment: functional.
In experiment [13] the target is Ribosomal protein S6 kinase alpha-3 (Homo sapiens, UniProt P51812). Type of experiment: functional.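 Further: measured within a kinome-wide profiling panel.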
The target in experiment [14] is Calcium/calmodulin-dependent protein kinase type II subunit alpha (Homo sapiens, UniProt Q9UQM7). The experiment is described as follows: Navigating the Kinome. Panel member name: CAMK2A. It is filed as functional.

What is called CC50 is the concentration at which the toxic effect on the cells reaches its halfway point. For orientation: EC50 means the concentration that produces a half-maximal response. As usually defined, the AC50 is the concentration giving half of the maximal activity seen. What is called Ki is a dissociation constant, usually derived from enzyme kinetics or from competition with a known ligand.

Casein kinase I isoform alpha, sequence (P48729 whole entry, canonical isoform): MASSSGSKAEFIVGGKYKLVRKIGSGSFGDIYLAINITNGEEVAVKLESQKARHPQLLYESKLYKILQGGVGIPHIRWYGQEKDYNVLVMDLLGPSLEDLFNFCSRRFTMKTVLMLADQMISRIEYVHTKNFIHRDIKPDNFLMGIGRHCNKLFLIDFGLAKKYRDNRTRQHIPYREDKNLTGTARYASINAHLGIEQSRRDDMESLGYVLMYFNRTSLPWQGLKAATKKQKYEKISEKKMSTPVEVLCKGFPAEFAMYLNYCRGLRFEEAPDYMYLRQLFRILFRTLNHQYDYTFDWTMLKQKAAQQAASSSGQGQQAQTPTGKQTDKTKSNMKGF
Mitogen-activated protein kinase 9, sequence (P45984 whole entry): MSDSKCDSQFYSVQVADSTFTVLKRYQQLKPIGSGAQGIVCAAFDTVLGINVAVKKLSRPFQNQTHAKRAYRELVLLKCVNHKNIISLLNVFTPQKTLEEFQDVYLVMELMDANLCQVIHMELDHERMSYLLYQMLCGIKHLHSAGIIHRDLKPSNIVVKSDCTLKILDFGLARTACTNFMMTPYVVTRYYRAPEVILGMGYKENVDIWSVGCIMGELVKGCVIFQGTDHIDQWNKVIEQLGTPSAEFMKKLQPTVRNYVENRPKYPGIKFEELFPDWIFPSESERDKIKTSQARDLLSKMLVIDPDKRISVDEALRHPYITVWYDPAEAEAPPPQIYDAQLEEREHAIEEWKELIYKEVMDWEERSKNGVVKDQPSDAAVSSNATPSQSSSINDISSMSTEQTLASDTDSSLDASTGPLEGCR
Calcium/calmodulin-dependent protein kinase type II subunit alpha, sequence (Q9UQM7 whole entry): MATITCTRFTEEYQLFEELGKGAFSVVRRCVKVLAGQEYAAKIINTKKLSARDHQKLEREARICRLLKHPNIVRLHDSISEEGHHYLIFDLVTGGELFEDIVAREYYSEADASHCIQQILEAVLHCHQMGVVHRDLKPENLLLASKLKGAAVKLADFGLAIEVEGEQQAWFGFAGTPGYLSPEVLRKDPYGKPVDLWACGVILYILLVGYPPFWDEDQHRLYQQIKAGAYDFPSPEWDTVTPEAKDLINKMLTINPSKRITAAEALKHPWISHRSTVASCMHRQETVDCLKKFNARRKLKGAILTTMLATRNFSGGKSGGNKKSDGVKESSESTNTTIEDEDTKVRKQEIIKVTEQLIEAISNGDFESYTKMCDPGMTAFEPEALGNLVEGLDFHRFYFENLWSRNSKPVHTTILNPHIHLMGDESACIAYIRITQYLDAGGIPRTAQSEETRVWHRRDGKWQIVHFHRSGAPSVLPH
Ribosomal protein S6 kinase alpha-3, sequence (P51812 whole entry): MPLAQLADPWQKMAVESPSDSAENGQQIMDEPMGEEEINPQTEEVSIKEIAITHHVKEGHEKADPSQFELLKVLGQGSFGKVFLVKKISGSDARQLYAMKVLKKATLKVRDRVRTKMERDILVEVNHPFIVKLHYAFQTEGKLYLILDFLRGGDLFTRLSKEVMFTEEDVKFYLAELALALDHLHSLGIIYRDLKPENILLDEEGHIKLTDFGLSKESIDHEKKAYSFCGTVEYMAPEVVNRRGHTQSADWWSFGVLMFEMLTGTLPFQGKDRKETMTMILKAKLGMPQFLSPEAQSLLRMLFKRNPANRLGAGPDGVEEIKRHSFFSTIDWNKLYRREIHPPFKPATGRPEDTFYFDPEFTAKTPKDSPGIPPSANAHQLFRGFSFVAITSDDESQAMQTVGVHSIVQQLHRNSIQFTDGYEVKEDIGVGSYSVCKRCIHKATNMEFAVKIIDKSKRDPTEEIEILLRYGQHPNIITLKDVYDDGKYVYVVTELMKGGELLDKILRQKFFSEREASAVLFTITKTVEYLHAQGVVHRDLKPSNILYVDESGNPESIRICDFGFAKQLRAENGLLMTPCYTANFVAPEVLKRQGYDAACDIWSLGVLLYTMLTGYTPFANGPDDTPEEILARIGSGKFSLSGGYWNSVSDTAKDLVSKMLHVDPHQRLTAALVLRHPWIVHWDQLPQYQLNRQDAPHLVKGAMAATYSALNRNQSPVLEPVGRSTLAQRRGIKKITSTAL
Serine/threonine-protein phosphatase, sequence (Q9BPW0 whole entry): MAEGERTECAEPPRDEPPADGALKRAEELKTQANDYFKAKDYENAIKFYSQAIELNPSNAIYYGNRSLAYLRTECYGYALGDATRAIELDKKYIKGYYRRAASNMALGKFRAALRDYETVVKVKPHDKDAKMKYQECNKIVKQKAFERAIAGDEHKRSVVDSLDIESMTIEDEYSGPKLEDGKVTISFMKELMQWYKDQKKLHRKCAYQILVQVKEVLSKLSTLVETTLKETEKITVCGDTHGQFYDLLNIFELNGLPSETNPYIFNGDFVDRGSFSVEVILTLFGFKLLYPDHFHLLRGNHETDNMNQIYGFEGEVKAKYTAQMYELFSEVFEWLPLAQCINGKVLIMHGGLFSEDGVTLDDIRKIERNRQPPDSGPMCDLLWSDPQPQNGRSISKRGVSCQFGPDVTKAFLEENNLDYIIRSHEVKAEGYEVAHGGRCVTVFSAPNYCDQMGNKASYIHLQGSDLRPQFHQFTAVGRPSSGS
Polyadenylate-binding protein 1, sequence (P11940 whole entry): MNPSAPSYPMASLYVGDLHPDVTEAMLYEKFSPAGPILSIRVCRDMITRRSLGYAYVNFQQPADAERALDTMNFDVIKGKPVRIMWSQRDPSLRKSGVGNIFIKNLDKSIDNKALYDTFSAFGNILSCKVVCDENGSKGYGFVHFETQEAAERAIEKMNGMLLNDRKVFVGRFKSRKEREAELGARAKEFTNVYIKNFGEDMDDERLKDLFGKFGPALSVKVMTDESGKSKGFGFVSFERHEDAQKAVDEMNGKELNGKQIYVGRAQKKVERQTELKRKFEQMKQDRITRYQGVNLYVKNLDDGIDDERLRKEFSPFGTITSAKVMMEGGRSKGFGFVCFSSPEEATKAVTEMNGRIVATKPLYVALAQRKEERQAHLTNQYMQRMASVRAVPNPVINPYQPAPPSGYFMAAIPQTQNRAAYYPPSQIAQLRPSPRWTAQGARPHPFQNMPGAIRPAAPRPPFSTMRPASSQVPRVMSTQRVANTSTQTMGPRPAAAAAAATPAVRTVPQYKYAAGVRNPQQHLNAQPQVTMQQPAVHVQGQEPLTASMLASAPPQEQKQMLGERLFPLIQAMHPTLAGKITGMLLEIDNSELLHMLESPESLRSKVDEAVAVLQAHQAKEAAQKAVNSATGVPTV

For `CCN(CC)CCOc1ccc2c(c1)C(=NNC(=O)c1ccccn1)c1cc(OCCN(CC)CC)ccc1-2`, in experiment [1], the CC50 was 31.7 µM (active). In addition, the EC50 in [2] was 2.17 µM (active). Also, the AC50 in experiment [3] was 10.3 µM (active).

In the case of `O=C(O)c1ccc2c(c1)[C@@H]1C=CC[C@@H]1[C@H](c1ccccn1)N2`, the values for the IC50 in experiment [4], in experiment [6] and in experiment [7] were 53.3 µM (inactive), 9.53 µM (active) and > 71.5 µM (inactive), respectively. The EC50 in experiment [5] is > 38 µM (not active).

Consider `COc1cc2cc(NC(C)=O)cc(NCc3ccccc3)c2cc1OC`, for which the IC50 in [8] was > 99 µM (inactive).

Regarding `CN(C)c1cc(N/N=C\c2ccccc2)nc(N(C)C)n1`, the IC50 in experiment [9] is 6.1 µM (active); in experiment [10], 50.7 µM (active); in experiment [8], 79.3 µM (active). In addition, the AC50 in [3] was 4.93 µM (active).

As to `O=C1Nc2cc(-c3ccc(O)cc3)ccc2C1=Cc1ccc[nH]1`, the Ki in experiment [11] is > 3.98 µM (inactive); in experiment [12] it was > 3.98 µM (inactive); in experiment [13] it was 31.6 nM (active); in experiment [14], 2.51 µM (active).

With `NC(COc1cncc(-c2ccc3c(c2)C(=Cc2ccc[nH]2)C(=O)N3)c1)Cc1ccccc1` (centres undefined), the inhibition constant (Ki) in experiment [11] is 2 µM (active); in [12], 1.26 µM (active); in [14], 0.0631 µM (active).
